According to patent publication US8772266B2, “Fungicide pyrazole carboxamides derivates” (Bayer Cropscience AG, priority 2009, dated 2014):

Legend:
[1] = logP by HPLC on reversed-phase column (EEC Directive 79/831 Annex V.A8); details: 40° C., 0.1% aqueous formic acid and acetonitrile, linear gradient 10% to 90% acetonitrile
Fusarium nivale = assay: In vivo curative test on Fusarium nivale (wheat); details: 500 ppm of active ingredient, evaluated 8 days after inoculation
Tetranychus urticae = assay: Spray application test on Tetranychus urticae; format: in vivo; details: 500 g of active ingredient/ha; after 6 days
Method: Solvent: 78.0 parts by weight acetone • 1.5 parts by weight dimethylformamide
Emulsifier: 0.5 parts by weight alkylarylpolyglcolether
French beans (Phaseolus vulgaris) which are heavily infested with all stages of the two spotted spidermite (Tetranychus urticae), are sprayed with a preparation of the active ingredient at the desired concentration.
After 6 days, mortality in % is determined. 100% means that all spider mites have been killed and 0% means that none of the spider mites have been killed.

Sphaerotheca fuliginea = assay: In vivo preventive test on Sphaerotheca fuliginea (cucumber), Example G; details: 10 ppm of active ingredient, evaluated 7 days after inoculation
Excerpt: After the spray coating has dried on, the plants are inoculated with an aqueous spore suspension of Sphaerotheca fuliginea.

[2] = HPLC, reversed-phase column (C 18)
[3] = HPLC on reversed-phase column (C 18)

Compound | logP [1, 2] | disease control (Fusarium nivale) [%] | mortality in % (Tetranychus urticae) [%] | disease control (Sphaerotheca fuliginea) [%] | logP [1, 3]
CC(c1cc(Cl)cc(Cl)c1)N(C(=O)c1c(C(F)F)nn(C)c1F)C1CC1 (racemic) [Example 40] | 4.04 | 100 | 80 | – | –
CC(c1cccc2c1CCC(C)(C)C2)N(C(=O)c1c(C(F)F)nn(C)c1F)C1CC1 (racemic) [Example 44] | 4.89 | 100 | – | – | –
Cc1cc(C)cc(C(C)N(C(=O)c2c(C(F)F)nn(C)c2F)C2CC2)c1 (racemic) [Example 46] | 3.8 | 100 | – | – | –
CC(c1cccc2c1CCCC2)N(C(=O)c1c(C(F)F)nn(C)c1F)C1CC1 (racemic) [Example 51] | 4.14 | 100 | – | – | –
CC(c1cccc2c1OC(F)(F)O2)N(C(=O)c1c(C(F)F)nn(C)c1F)C1CC1 (racemic) [Example 72] | 3.58 | – | – | 100 | –
Cn1nc(C(F)F)c(C(=O)N(Cc2cc(Cl)ccc2C(F)(F)F)C2CC2)c1F [Example 1] | 3.8 | 100 | 80 | 100 | –
Cn1nc(C(F)F)c(C(=O)N(Cc2c(Cl)cccc2C(F)(F)F)C2CC2)c1F [Example 2] | 3.46 | 100 | – | 100 | –
Cn1nc(C(F)F)c(C(=O)N(Cc2cc(Cl)ccc2Br)C2CC2)c1F [Example 4] | 3.67 | 100 | – | – | –
Cn1nc(C(F)F)c(C(=O)N(Cc2c(C(F)(F)F)ccc(Cl)c2F)C2CC2)c1F [Example 5] | 3.62 | 100 | 80 | 100 | –
Cn1nc(C(F)F)c(C(=O)N(Cc2c(F)cccc2I)C2CC2)c1F [Example 8] | 3.26 | 100 | – | 100 | –
Cn1nc(C(F)F)c(C(=O)N(Cc2ccccc2I)C2CC2)c1F [Example 9] | 3.37 | 100 | – | – | –
Cn1nc(C(F)F)c(C(=O)N(Cc2c(Br)ccc(F)c2F)C2CC2)c1F [Example 10] | 3.21 | 100 | – | 100 | –
Cn1nc(C(F)F)c(C(=O)N(Cc2c(F)cccc2[Si](C)(C)C)C2CC2)c1F [Example 11] | 4.31 | – | – | 100 | –
Cc1ccc(C(F)(F)F)c(CN(C(=O)c2c(C(F)F)nn(C)c2F)C2CC2)c1 [Example 12] | 3.78 | – | – | 100 | –
CC[Si](C)(C)c1ccccc1CN(C(=O)c1c(C(F)F)nn(C)c1F)C1CC1 [Example 13] | 4.75 | – | – | 100 | –
CC[Si](CC)(CC)c1ccccc1CN(C(=O)c1c(C(F)F)nn(C)c1F)C1CC1 [Example 14] | 5.53 | 100 | – | 100 | –
Cn1nc(C(F)F)c(C(=O)N(Cc2c(C(F)(F)F)ccc(Cl)c2Cl)C2CC2)c1F [Example 15] | 3.89 | 100 | – | 100 | –
Cn1nc(C(F)F)c(C(=O)N(Cc2cc(F)c(Br)cc2Br)C2CC2)c1F [Example 16] | 3.96 | 100 | – | – | –
Cc1cc(Br)c(CN(C(=O)c2c(C(F)F)nn(C)c2F)C2CC2)cc1Br [Example 17] | 4.19 | 100 | – | – | –

Compound | logP [1, 2] | disease control (Fusarium nivale) [%] | mortality in % (Tetranychus urticae) [%] | disease control (Sphaerotheca fuliginea) [%] | logP [1, 3]
Cn1nc(C(F)F)c(C(=O)N(Cc2cc(Cl)cc(Cl)c2Cl)C2CC2)c1F [Example 18] | 4.11 | 100 | – | 100 | –
Cn1nc(C(F)F)c(C(=O)N(Cc2ccc(Cl)cc2I)C2CC2)c1F [Example 20] | 3.99 | 100 | – | – | –
Cn1nc(C(F)F)c(C(=O)N(Cc2cc(Cl)ccc2I)C2CC2)c1F [Example 23] | 3.83 | 100 | – | 100 | –
Cn1nc(C(F)F)c(C(=O)N(Cc2cc(Cl)ccc2[Si](C)(C)C)C2CC2)c1F [Example 24] | 4.81 | 100 | – | 100 | –
Cn1nc(C(F)F)c(C(=O)N(Cc2cc(Cl)c(Cl)cc2C(F)(F)F)C2CC2)c1F [Example 25] | 4.34 | 100 | – | – | –
CCCCCc1cccc(Cl)c1CN(C(=O)c1c(C(F)F)nn(C)c1F)C1CC1 [Example 27] | 5 | – | – | 100 | –
CCCCCc1ccccc1CN(C(=O)c1c(C(F)F)nn(C)c1F)C1CC1 [Example 28] | 4.62 | 100 | – | – | –
CC(C)c1ccc(Cl)cc1CN(C(=O)c1c(C(F)F)nn(C)c1F)C1CC1 [Example 29] | 4.09 | 100 | – | 100 | –
Cn1nc(C(F)F)c(C(=O)N(Cc2ccccc2SC(F)(F)F)C2CC2)c1F [Example 30] | 3.74 | 100 | 80 | – | –
CC(C)Cc1cccc(Cl)c1CN(C(=O)c1c(C(F)F)nn(C)c1F)C1CC1 [Example 32] | 4.44 | – | – | 100 | –
CC(C)Cc1ccccc1CN(C(=O)c1c(C(F)F)nn(C)c1F)C1CC1 [Example 33] | 4.15 | 100 | – | – | –
Cn1nc(C(F)F)c(C(=O)N(Cc2cc(Cl)ccc2C(F)(F)F)C2CC2)c1Cl [Example 36] | 4.01 | 100 | – | – | –
Cn1nc(C(F)F)c(C(=S)N(Cc2ccccc2)C2CC2)c1F [Example 39] | 3.44 | 100 | – | – | –
Cn1nc(C(F)F)c(C(=O)N(Cc2cc(Cl)ccc2C2CC2)C2CC2)c1F [Example 41] | 3.87 | 100 | – | 100 | –
CC(C)Oc1ccc2c(c1)CCCC2N(C(=O)c1c(C(F)F)nn(C)c1F)C1CC1 (stereo not shown) [Example 42] | 4.11 | 100 | – | – | –
Cn1nc(C(F)F)c(C(=O)N(Cc2cc(I)ccc2C(F)(F)F)C2CC2)c1F [Example 43] | 4.01 | 100 | – | – | –
Cn1nc(C(F)F)c(C(=O)N(Cc2ccccc2C2CC2)C2CC2)c1F [Example 47] | 3.44 | – | – | 100 | –
CCc1ccccc1CN(C(=O)c1c(C(F)F)nn(C)c1F)C1CC1 [Example 48] | 3.33 | 100 | – | – | –
Cn1nc(C(F)F)c(C(=O)N(Cc2c([Si](C)(C)C)ccc(F)c2F)C2CC2)c1F [Example 49] | 4.36 | – | – | 100 | –

Compound | logP [1, 2] | disease control (Fusarium nivale) [%] | mortality in % (Tetranychus urticae) [%] | disease control (Sphaerotheca fuliginea) [%] | logP [1, 3]
CCc1cc(C)c(C)cc1CN(C(=O)c1c(C(F)F)nn(C)c1F)C1CC1 [Example 53] | 4.04 | 100 | – | – | –
Cn1nc(C(F)F)c(C(=O)N(Cc2ccccc2C(F)(F)F)C2CC2)c1F [Example 61] | 3.39 | 100 | – | – | –
CC(c1ncc(Cl)cc1Cl)N(C(=O)c1c(C(F)F)nn(C)c1F)C1CC1 (stereo not shown) [Example 62] | 3.48 | – | – | 100 | –
Cn1nc(C(F)F)c(C(=O)N(Cc2ccc(Cl)cc2Cl)C2CC2)c1F [Example 63] | 3.69 | 100 | – | – | –
Cn1nc(C(F)F)c(C(=O)N(Cc2cccc(-c3ccccc3)c2)C2CC2)c1F [Example 64] | 3.78 | 100 | – | – | –
Cn1nc(C(F)F)c(C(=O)N(Cc2c(C(F)(F)F)ccc(F)c2F)C2CC2)c1F [Example 68] | 3.31 | – | – | 100 | –
CC(c1ccc(Cl)cc1Cl)N(C(=O)c1c(C(F)F)nn(C)c1F)C1CC1 (stereo not shown) [Example 70] | 3.83 | – | – | 100 | –
CC(C)c1ccccc1C(C)N(C(=O)c1c(C(F)F)nn(C)c1F)C1CC1 (stereo not shown) [Example 80] | 3.99 | 100 | – | 100 | –
CCc1ccccc1C(C)N(C(=O)c1c(C(F)F)nn(C)c1F)C1CC1 (stereo not shown) [Example 81] | 3.69 | 100 | – | 100 | –
Cn1nc(C(F)F)c(C(=O)N(Cc2ccccc2C2CCCC2)C2CC2)c1F [Example 82] | 4.2 | – | – | 100 | –
Cn1nc(C(F)F)c(C(=O)N(Cc2c(Cl)cccc2Br)C2CC2)c1F [Example 83] | 3.42 | – | – | 100 | –
Cn1nc(C(F)F)c(C(=O)N(Cc2c(F)cccc2C(F)(F)F)C2CC2)c1F [Example 84] | – | 100 | – | 100 | –
CC(c1ncc(C(F)(F)F)cc1Cl)N(C(=O)c1c(C(F)F)nn(C)c1F)C1CC1 (stereo not shown) [Example 90] | 3.71 | 100 | – | – | –
Cn1nc(C(F)F)c(C(=O)N(C2CC2)C2CCC(C)(C)c3ccccc32)c1F (stereo not shown) [Example 99] | 4.16 | – | – | 100 | –
CC(c1cc(Cl)ccc1C(F)(F)F)N(C(=O)c1c(C(F)F)nn(C)c1F)C1CC1 (stereo not shown) [Example 101] | – | – | – | 100 | 3.92
Cn1nc(C(F)F)c(C(=O)N(Cc2ccccc2OC(F)(F)F)C2CC2)c1F [Example 105] | – | 100 | – | – | 3.46
CC(C)c1ccccc1CN(C(=S)c1c(C(F)F)nn(C)c1F)C1CC1 [Example 131] | – | – | – | 100 | 4.36
Cn1nc(C(F)F)c(C(=S)N(Cc2c(Cl)cccc2C(F)(F)F)C2CC2)c1F [Example 132] | – | – | – | 100 | 4.23
